Laboratory results reported in PubChem BioAssay (NCI).
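Following 48 hours of exposure in 96-well plates, responses at five concentrations were used to interpolate endpoints linearly. GI50 = concentration required for 50% inhibition of growth. The concentration for full growth arrest is given as TGI.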

What was measured:
Assay in all cases: NCI-60 cell line screen, 48 h
HCT-116 colon = test system: HCT-116 colon
HOP-62 NSCLC = test system: HOP-62 NSCLC
HT29 colon = test system: HT29 colon
IGROV1 ovarian = test system: IGROV1 ovarian
NCI-H460 lung = test system: NCI-H460 lung
OVCAR-4 ovarian = test system: OVCAR-4 ovarian
SF-268 CNS = test system: SF-268 CNS
SW-620 colon = test system: SW-620 colon
UACC-62 melanoma = test system: UACC-62 melanoma
SK-MEL-2 melanoma = test system: SK-MEL-2 melanoma

COC(=O)c1c(C)cccc1/C=C1/Cc2c(C)cccc2C1=O showed a TGI (HCT-116 colon) of over 100 µM, a TGI (HOP-62 NSCLC) of over 100 µM and a TGI (HT29 colon) of over 100 µM. It also gave a TGI (IGROV1 ovarian) of over 100 µM, a TGI (NCI-H460 lung) of over 100 µM and a TGI (OVCAR-4 ovarian) of over 100 µM. The TGI (SF-268 CNS) was over 100 µM, the TGI (SW-620 colon) was over 100 µM and the TGI (UACC-62 melanoma) was over 100 µM.
For COc1ccc(/C(=N/O)c2ccccc2-c2nc3ccccc3c(=O)n2-c2ccc(S(=O)(=O)Nc3ncccn3)cc2)cc1C, the TGI (HCT-116 colon) was 22.1 µM, the TGI (HOP-62 NSCLC) was over 31.6 µM and the TGI (IGROV1 ovarian) was over 31.6 µM. It also gave a TGI (NCI-H460 lung) of over 31.6 µM, a TGI (OVCAR-4 ovarian) of over 31.6 µM and a TGI (SF-268 CNS) of over 31.6 µM. For the same compound, the TGI (SW-620 colon) was over 31.6 µM and the TGI (UACC-62 melanoma) was 19.9 µM.
With COc1ccc(N2C(=O)c3c4c(c5c([nH]c6ncccc65)c3C2=O)CCC(C(C)(C)C)C4)cc1 (stereo not drawn) the TGI (HCT-116 colon) was over 100 µM, the TGI (HOP-62 NSCLC) was over 100 µM and the TGI (HT29 colon) was over 100 µM. It also gave a TGI (IGROV1 ovarian) of over 100 µM, a TGI (NCI-H460 lung) of over 100 µM and a TGI (OVCAR-4 ovarian) of over 100 µM. It also gave a TGI (SF-268 CNS) of over 100 µM, a TGI (SW-620 colon) of over 100 µM and a TGI (UACC-62 melanoma) of over 100 µM.
Oc1ccc(-c2nnc3sc(-c4ccc(F)cc4)nn23)cc1 was tested, and the GI50 (HT29 colon) was over 100 µM, the TGI (HT29 colon) was over 100 µM and the GI50 (IGROV1 ovarian) was 55.8 µM. For the same compound, the TGI (IGROV1 ovarian) was over 100 µM, the GI50 (NCI-H460 lung) was over 100 µM and the TGI (NCI-H460 lung) was over 100 µM. The GI50 (OVCAR-4 ovarian) was over 100 µM, the TGI (OVCAR-4 ovarian) was over 100 µM and the GI50 (SF-268 CNS) was 23 µM. For the same compound, the TGI (SF-268 CNS) was 62.6 µM, the GI50 (SK-MEL-2 melanoma) was over 100 µM and the TGI (SK-MEL-2 melanoma) was over 100 µM. The GI50 (SW-620 colon) was over 100 µM, the TGI (SW-620 colon) was over 100 µM and the GI50 (UACC-62 melanoma) was 31.8 µM. For the same compound, the TGI (UACC-62 melanoma) was over 100 µM.
In the case of O=C(NC(Cc1c[nH]c2ccccc12)C(=O)O)/C(=C/c1ccccc1O)NC(=O)c1ccccc1 (stereo not drawn), the TGI (HCT-116 colon) was over 100 µM, the TGI (HT29 colon) was over 100 µM and the TGI (IGROV1 ovarian) was over 100 µM. It also gave a TGI (NCI-H460 lung) of over 100 µM, a TGI (OVCAR-4 ovarian) of over 100 µM and a TGI (SF-268 CNS) of 45.6 µM. The TGI (SW-620 colon) was over 100 µM and the TGI (UACC-62 melanoma) was over 100 µM.
O=[N+]([O-])C(=C(N1CCCCC1)N1CCCCC1)/C(Cl)=C(\Cl)Br showed a TGI (HCT-116 colon) of 41.7 µM, a TGI (HOP-62 NSCLC) of over 100 µM and a TGI (HT29 colon) of over 100 µM. For the same compound, the TGI (IGROV1 ovarian) was 90.8 µM, the TGI (NCI-H460 lung) was over 100 µM and the TGI (OVCAR-4 ovarian) was 66.5 µM. It also gave a TGI (SF-268 CNS) of 87.9 µM, a TGI (SW-620 colon) of 38.5 µM and a TGI (UACC-62 melanoma) of 28.1 µM.
With COC(=O)c1ccccc1/C=C1/Cc2ccccc2C1=O the TGI (HCT-116 colon) was 62.8 µM, the TGI (HOP-62 NSCLC) was over 100 µM and the TGI (HT29 colon) was over 100 µM. The TGI (IGROV1 ovarian) was 88.7 µM, the TGI (NCI-H460 lung) was over 100 µM and the TGI (OVCAR-4 ovarian) was over 100 µM. It also gave a TGI (SF-268 CNS) of over 100 µM, a TGI (SW-620 colon) of 85.5 µM and a TGI (UACC-62 melanoma) of over 100 µM.
For CCCCCCCCCC[C@H](O)[C@H]1CC[C@H]([C@H]2CC[C@H]([C@H](O)CC[C@H](O)CCCCCCC[C@@H](O)CC3=C[C@H](C)OC3=O)O2)O1, the TGI (HCT-116 colon) was over 100 µM, the TGI (IGROV1 ovarian) was over 100 µM and the TGI (NCI-H460 lung) was over 100 µM. The TGI (OVCAR-4 ovarian) was over 100 µM, the GI50 (SF-268 CNS) was over 100 µM and the TGI (SF-268 CNS) was over 100 µM. For the same compound, the TGI (SK-MEL-2 melanoma) was over 100 µM, the GI50 (SW-620 colon) was over 100 µM and the TGI (SW-620 colon) was over 100 µM.
Cc1nn(C(=O)Cc2ccccc2)c2c1C(c1ccccc1O)SC(N)=N2 (stereo not drawn) showed a TGI (HCT-116 colon) of over 100 µM, a TGI (HOP-62 NSCLC) of over 100 µM and a TGI (HT29 colon) of over 100 µM. It also gave a TGI (IGROV1 ovarian) of over 100 µM, a TGI (NCI-H460 lung) of over 100 µM and a TGI (SF-268 CNS) of over 100 µM. The TGI (SW-620 colon) was over 100 µM and the TGI (UACC-62 melanoma) was over 100 µM.
Compound Cc1cc(-c2nc3c(O)cccc3s2)ccc1N has a TGI (HCT-116 colon) of 49 µM, a TGI (HOP-62 NSCLC) of 88.8 µM and a TGI (HT29 colon) of 53.3 µM. The TGI (IGROV1 ovarian) was 53.8 µM, the TGI (NCI-H460 lung) was over 100 µM and the TGI (SF-268 CNS) was 75.6 µM. For the same compound, the TGI (SK-MEL-2 melanoma) was 52.9 µM, the TGI (SW-620 colon) was over 100 µM and the TGI (UACC-62 melanoma) was 26.7 µM.
CCOC1CC(=O)c2c(Br)sc(Br)c21 (stereo not drawn) was tested, and the TGI (HCT-116 colon) was 38.4 µM, the TGI (HOP-62 NSCLC) was 38.2 µM and the TGI (HT29 colon) was 44 µM. It also gave a TGI (IGROV1 ovarian) of 31 µM, a TGI (NCI-H460 lung) of 43.1 µM and a TGI (SF-268 CNS) of 80.8 µM. The TGI (SK-MEL-2 melanoma) was 37.2 µM, the TGI (SW-620 colon) was 47.1 µM and the TGI (UACC-62 melanoma) was 35.1 µM.
